Active and inactive are the calls of the source. The rule behind the calls is not given here.
Experiments:
[1] = Effect on cleaved PARP level in human NCI-H1694 cells assessed as relative expression at 10 nM measured after 14 days by Western blot analysis (reference value: 0.25); type: functional; conditions: time 14 day
[2] = Toxicity in dog assessed as suppression of erythroid maturation in bone marrow measured for 28 days; set-up: species or system Canis lupus familiaris; conditions: in vivo, 672 h, time 28 day
[3] = Toxicity in rat assessed as suppression of platelet in bone marrow measured for 28 days; type: cell-based; conditions: 672 h, time 28 day
[4] = system: NCI-H526; assay: Effect on global H3K4me2 level in human NCI-H526 cells at 10 to 1000 nM measured after 24 hrs by Western blot analysis; type: functional, cell-based; conditions: dose 10-1000 nM
[5] = Effect on cleaved PARP level in human NCI-H69 cells assessed as relative expression at 1000 nM measured after 14 days by Western blot analysis (reference value: 0.03); type: functional; conditions: time 14 day
[6] = Effect on cleaved PARP level in human NCI-H889 cells assessed as fold change at 10 nM measured after 7 days by Western blot analysis (reference value: 1.00); type: functional; conditions: time 7 day
[7] = Effect on cleaved PARP level in human NCI-H524 cells assessed as relative expression at 10 nM measured after 7 days by Western blot analysis (reference value: 0.63); type: functional; conditions: time 7 day
[8] = system: NCI-H1417; assay: Cell growth inhibition of human NCI-H1417 cells measured upto 10 days; type: functional, cell-based; conditions: time <= 10.0 day
[9] = Effect on cleaved PARP level in human NCI-H1417 cells assessed as relative expression at 100 nM measured after 10 days by Western blot analysis (reference value: 0.19); type: functional; conditions: time 10 day
[10] = Effect on cleaved PARP level in human NCI-H889 cells assessed as fold change at 1000 nM measured after 7 days by Western blot analysis (reference value: 1.00); type: functional; conditions: time 7 day
[11] = system: NCI-H526; assay: In vivo inhibition of LSD1 in human NCI-H526 cells xenografted in nude mouse assessed as change in UMODL1 gene expression administrated daily for 5 days by qRT-PCR analysis; type: functional, organism-based; conditions: dose 0.02-135 mg/kg, time 5.0 day
[12] = Toxicity in dog assessed as morbidity measured for 28 days; set-up: species or system Canis lupus familiaris; conditions: in vivo, 672 h, time 28 day
[13] = Effect on cleaved PARP level in human NCI-H524 cells assessed as fold change at 100 nM measured after 14 days by Western blot analysis (reference value: 1.00); type: functional; conditions: time 14 day
[14] = Effect on cleaved PARP level in human COLO-668 cells assessed as fold change at 1000 nM measured after 14 days by Western blot analysis (reference value: 1.00); type: functional; conditions: time 14 day
[15] = Half life in mouse tumor at 5 mg/kg, po by HPLC/MS/MS analysis; type: ADME, organism-based, Neoplasm
[16] = Effect on cleaved PARP level in human NCI-H524 cells assessed as relative expression at 100 nM measured after 14 days by Western blot analysis (reference value: […]); type: functional; conditions: time 14 day
[17] = system: COLO-668; assay: Effect on NSE gene expression in human COLO-668 cells at 1 uM measured after 4 to 7 days by qRT-PCR analysis; type: functional, cell-based; conditions: time 4-7 day
[18] = Effect on cleaved PARP level in human NCI-H69 cells assessed as relative expression at 100 nM measured after 7 days by Western blot analysis (reference value: 0.02); type: functional; conditions: time 7 day
[19] = Effect on cleaved PARP level in human NCI-H889 cells assessed as fold change at 100 nM measured after 7 days by Western blot analysis (reference value: 1.00); type: functional; conditions: time 7 day
[20] = Effect on cleaved PARP level in human NCI-H1417 cells assessed as fold change at 1000 nM measured after 7 days by Western blot analysis (reference value: 1.00); type: functional; conditions: time 7 day
[21] = system: NCI-H446; assay: Effect on NSE gene expression in human NCI-H446 cells at 1 uM measured after 4 to 7 days by qRT-PCR analysis; type: functional, cell-based; conditions: time 4-7 day
[22] = target: D-amino-acid oxidase (Homo sapiens, UniProt P14920)
Chain of D-amino-acid oxidase (P14920 whole entry, looked up): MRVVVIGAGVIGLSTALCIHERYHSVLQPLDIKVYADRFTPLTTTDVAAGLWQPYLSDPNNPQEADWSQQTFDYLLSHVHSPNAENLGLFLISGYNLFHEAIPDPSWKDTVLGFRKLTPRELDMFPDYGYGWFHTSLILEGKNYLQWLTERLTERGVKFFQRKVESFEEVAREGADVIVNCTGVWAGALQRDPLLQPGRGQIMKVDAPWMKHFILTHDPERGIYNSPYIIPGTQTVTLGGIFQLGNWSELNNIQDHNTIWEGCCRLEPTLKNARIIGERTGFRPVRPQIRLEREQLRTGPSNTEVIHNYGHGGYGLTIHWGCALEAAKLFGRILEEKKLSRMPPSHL
Description: Binding affinity to D-amino acid oxidase (unknown origin) assessed as inactivation constant

[23] = system: NCI-H526; assay: Effect on NSE gene expression in human NCI-H526 cells at 1 uM measured after 4 to 7 days by qRT-PCR analysis; type: functional, cell-based; conditions: time 4-7 day
[24] = Effect on cleaved PARP level in human NCI-H2171 cells assessed as fold change at 10 nM measured after 10 days by Western blot analysis (reference value: 1.00); type: functional; conditions: time 10 day
[25] = Effect on cleaved PARP level in human NCI-H1694 cells assessed as fold change at 10 nM measured after 10 days by Western blot analysis (reference value: 1.00); type: functional; conditions: time 10 day
[26] = system: NCI-H1417; assay: Antitumor activity against human NCI-H1417 cells xenografted in nude mouse assessed as decrease in GRP expression at 1.5 mg/kg administrated daily by qRT-PCR analysis; type: functional, organism-based; conditions: time 1-14 day, TDE = time-dependent effect
[27] = Effect on cleaved PARP level in human NCI-H1417 cells assessed as fold change at 100 nM measured after 7 days by Western blot analysis (reference value: 1.00); type: functional; conditions: time 7 day
[28] = Toxicity in mouse xenografted with human NCI-H526 cells assessed as body weight loss at 1.5 mg/kg, po administered daily measured for 30 days; type: organism-based; conditions: in vivo, 720 h, time 30 day
[29] = Toxicity in dog assessed as neutrophenia measured for 28 days; set-up: species or system Canis lupus familiaris; conditions: in vivo, 672 h, time 28 day
[30] = Effect on cleaved PARP level in human NCI-H146 cells assessed as fold change at 10 nM measured after 10 days by Western blot analysis (reference value: 1.00); type: functional; conditions: time 10 day
[31] = Effect on cleaved PARP level in human COLO-668 cells assessed as fold change at 1000 nM measured after 7 days by Western blot analysis (reference value: 1.00); type: functional; conditions: time 7 day
[32] = Effect on cleaved PARP level in human NCI-H146 cells assessed as fold change at 100 nM measured after 7 days by Western blot analysis (reference value: 1.00); type: functional; conditions: time 7 day
[33] = Effect on cleaved PARP level in human NCI-H526 cells assessed as relative expression at 100 nM measured after 7 days by Western blot analysis (reference value: 0.57); type: functional; conditions: time 7 day
[34] = Effect on cleaved PARP level in human NCI-H524 cells assessed as relative expression at 100 nM measured after 10 days by Western blot analysis (reference value: 0.95); type: functional; conditions: time 10 day
[35] = Antitumor activity against human PDX L48 cells xenografted in mouse assessed as tumor growth inhibition at 1.5 mg/kg administered daily measured for 16 days relative to control; type: functional; conditions: PDX LX48, 384 h, time 16 day, read-out: TGI
[36] = system: NCI-H1417; assay: In vivo inhibition of LSD1 in human NCI-H1417 cells xenografted in nude mouse assessed as change in LBH gene expression measured after 24 hrs post single administration by qRT-PCR analysis; type: functional, organism-based; conditions: dose 0.02-135 mg/kg
[37] = Effect on cleaved PARP level in human NCI-H69 cells assessed as relative expression at 1000 nM measured after 7 days by Western blot analysis (reference value: 0.02); type: functional; conditions: time 7 day
[38] = Effect on cleaved PARP level in human NCI-H69 cells assessed as fold change at 1000 nM measured after 14 days by Western blot analysis (reference value: 1.00); type: functional; conditions: time 14 day

## O=C(O)c1ccc(CN2CCC(CN[C@@H]3C[C@H]3c3ccccc3)CC2)cc1 [GSK2879552]
[1]
  Activity: 0.22
[2]
  Activity: Toxic
[3]
  Activity: Toxic
[4]
  Activity: inactive
[5]
  Activity: 0.17
[6]
  fold change (FC): 0.09
[7]
  Activity: 0.62
[8]
  growth inhibition (GI): Dose-Dependent Effect
[9]
  Activity: 0.4
[10]
  fold change (FC): 1.92
[11]
  inhibition: Dose-Dependent Effect
[12]
  Activity: Toxic
[13]
  fold change (FC): 0.74
[14]
  fold change (FC): 0.29
[15]
  half-life: 8.4 h
[16]
  Activity: 1.13
[17]
  Activity: inactive
[18]
  Activity: 0.03
[19]
  fold change (FC): 1.25
[20]
  fold change (FC): 3.48
[21]
  Activity: inactive
[22]
  Kinact: 0.12 min⁻¹
[23]
  Activity: inactive
[24]
  fold change (FC): 1.33
[25]
  fold change (FC): 0.88
[26]
  Activity: Tde
[27]
  fold change (FC): 2.85
[28]
  Activity: Non-Toxic
[29]
  Activity: Toxic
[30]
  fold change (FC): 1.24
[31]
  fold change (FC): 0.95
[32]
  fold change (FC): 1.02
[33]
  Activity: 0.68
[34]
  Activity: 0.67
[35]
  inhibition in vivo at 1.5 mg/kg: 74%
[36]
  inhibition: Dose-Dependent Effect
[37]
  Activity: 0.04
[38]
  fold change (FC): 5.16

— ChEMBL document CHEMBL5705903, “A DNA Hypomethylation Signature Predicts Antitumor Activity of LSD1 Inhibitors in SCLC” (Cancer Cell, 2015)
